Experimental data from ChEMBL document CHEMBL2029210, “Synthesis of constrained benzocinnolinone analogues of CEP-26401 (irdabisant) as potent, selective histamine H3 receptor inverse agonists” (Bioorg Med Chem Lett, 2012).

Columns and labels:
[1] = biological target: Histamine H1 receptor (Homo sapiens) (UniProt P35367); assay: Binding affinity to human histamine H1 receptor at 10 uM by radioligand binding assay
[2] = Oral bioavailability in rat at 5 mg/kg; type: ADME, organism-based; details: in vivo
Homo sapiens [3] = species on record: Homo sapiens; assay: Selectivity ratio of Ki for human H2 receptor to Ki for human H3 receptor
[4] = biological target: Histamine H4 receptor (Homo sapiens) (UniProt Q9H3N8); assay: Binding affinity to human histamine H4 receptor at 10 uM by radioligand binding assay
[5] = Cmax in rat at 5 mg/kg, po; type: ADME, organism-based; design: dose 5 mg/kg, route oral; details: in vivo
Histamine H3 receptor [6] = biological target: T1, Histamine H3 receptor (Homo sapiens, UniProt Q9Y5N1); assay: Displacement of [3H]NAMH from human histamine H3 receptor expressed in CHO cell membrane; type: cell membranes
Homo sapiens [7] = species on record: Homo sapiens; assay: Selectivity ratio of Ki for human H4 receptor to Ki for human H3 receptor
Homo sapiens [8] = species on record: Homo sapiens; assay: Selectivity ratio of Ki for human H1 receptor to Ki for human H3 receptor
Histamine H3 receptor [9] = biological target: Histamine H3 receptor (Rattus norvegicus, UniProt Q9QYN8); assay: Displacement of [3H]NAMH from rat histamine H3 receptor expressed in CHO cell membrane; type: cell membranes
[10] = biological target: Histamine H2 receptor (Homo sapiens) (UniProt P25021); assay: Binding affinity to human histamine H2 receptor at 10 uM by radioligand binding assay
[11] = (§1) Half life in rat at 1 mg/kg, iv; type: ADME, organism-based; design: dose 1 mg/kg, route intravenous; details: in vivo
[12] = AUC in rat at 5 mg/kg, po; type: ADME, organism-based; design: dose 5 mg/kg, route oral; details: plasma
[13] = Clearance in rat at 1 mg/kg, iv; type: ADME, organism-based; design: dose 1 mg/kg, route intravenous; details: in vivo
[14] = (§2) Volume of distribution in rat at 1 mg/kg, iv; type: ADME, organism-based; design: dose 1 mg/kg, route intravenous; details: in vivo
[15] = Ratio of drug uptake in brain to plasma in rat at 5 mg/kg, po; type: ADME, organism-based; design: dose 5 mg/kg, route oral; details: read-out: BPR
[16] = Drug uptake in rat brain at 5 mg/kg, po after 6 hrs; type: ADME, organism-based; design: dose 5 mg/kg, route oral; details: read-out: Drug uptake
Rattus norvegicus [17] = assay: as §1; type: ADME, organism-based; design: dose 1 mg/kg, route intravenous; details: in vivo
Rattus norvegicus [18] = assay: as §2; type: ADME, organism-based; design: dose 1 mg/kg, route intravenous; details: in vivo
Cytochrome P450 2C9 = Cytochrome P450 2C9 (Homo sapiens, UniProt P11712); assay: Inhibition of CYP2C9; type: ADME
Cytochrome P450 2C19 = Cytochrome P450 2C19 (Homo sapiens, UniProt P33261); assay: Inhibition of CYP2C19; type: ADME
Cytochrome P450 2D6 = Cytochrome P450 2D6 (Homo sapiens, UniProt P10635); assay: Inhibition of CYP2D6; type: ADME
hERG (KCNH2) = hERG (KCNH2) (Homo sapiens, UniProt Q12809); assay: Displacement of astemizole from human ERG at 10 uM; details: probe astemizole
Histamine H3 receptor [19] = biological target: T1, Histamine H3 receptor; assay: Inverse agonist activity at human H3 receptor by [35S]GTPgamma binding assay; type: functional
Cytochrome P450 1A2 = biological target: T2, Cytochrome P450 1A2 (Homo sapiens, UniProt P05177); assay: Inhibition of CYP1A2; type: ADME
T2 sequence (P05177 whole entry): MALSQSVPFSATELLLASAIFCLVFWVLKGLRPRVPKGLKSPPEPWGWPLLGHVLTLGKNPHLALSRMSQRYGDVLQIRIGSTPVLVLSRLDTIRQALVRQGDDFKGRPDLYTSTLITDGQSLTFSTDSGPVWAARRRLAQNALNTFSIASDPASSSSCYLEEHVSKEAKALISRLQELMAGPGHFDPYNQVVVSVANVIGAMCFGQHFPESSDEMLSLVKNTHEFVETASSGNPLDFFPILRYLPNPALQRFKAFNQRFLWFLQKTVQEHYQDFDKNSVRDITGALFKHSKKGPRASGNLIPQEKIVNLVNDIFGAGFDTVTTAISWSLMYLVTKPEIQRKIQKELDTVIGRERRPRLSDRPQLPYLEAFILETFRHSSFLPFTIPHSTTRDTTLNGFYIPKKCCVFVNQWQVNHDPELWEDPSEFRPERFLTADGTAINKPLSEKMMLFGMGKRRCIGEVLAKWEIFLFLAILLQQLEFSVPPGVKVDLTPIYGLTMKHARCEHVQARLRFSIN

Cytochrome P450 3A4 = Cytochrome P450 3A4 (Homo sapiens, UniProt P08684); assay: Inhibition of CYP3A4; type: ADME
Cytochrome P450 3A4, sequence (P08684 whole entry): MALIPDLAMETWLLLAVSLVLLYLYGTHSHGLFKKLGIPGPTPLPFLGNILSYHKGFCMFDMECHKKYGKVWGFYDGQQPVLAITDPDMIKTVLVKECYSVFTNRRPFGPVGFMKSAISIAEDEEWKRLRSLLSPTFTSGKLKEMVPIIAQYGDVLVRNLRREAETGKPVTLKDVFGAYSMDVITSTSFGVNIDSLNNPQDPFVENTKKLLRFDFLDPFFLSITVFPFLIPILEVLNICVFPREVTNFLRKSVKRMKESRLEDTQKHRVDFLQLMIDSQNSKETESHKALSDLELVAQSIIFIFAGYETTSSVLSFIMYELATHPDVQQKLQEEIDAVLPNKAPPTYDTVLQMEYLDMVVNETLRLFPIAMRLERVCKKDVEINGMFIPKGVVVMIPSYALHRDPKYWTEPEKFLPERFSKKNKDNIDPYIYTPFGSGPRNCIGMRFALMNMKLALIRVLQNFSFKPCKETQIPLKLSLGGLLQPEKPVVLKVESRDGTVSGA

T1 sequence (Q9Y5N1 whole entry): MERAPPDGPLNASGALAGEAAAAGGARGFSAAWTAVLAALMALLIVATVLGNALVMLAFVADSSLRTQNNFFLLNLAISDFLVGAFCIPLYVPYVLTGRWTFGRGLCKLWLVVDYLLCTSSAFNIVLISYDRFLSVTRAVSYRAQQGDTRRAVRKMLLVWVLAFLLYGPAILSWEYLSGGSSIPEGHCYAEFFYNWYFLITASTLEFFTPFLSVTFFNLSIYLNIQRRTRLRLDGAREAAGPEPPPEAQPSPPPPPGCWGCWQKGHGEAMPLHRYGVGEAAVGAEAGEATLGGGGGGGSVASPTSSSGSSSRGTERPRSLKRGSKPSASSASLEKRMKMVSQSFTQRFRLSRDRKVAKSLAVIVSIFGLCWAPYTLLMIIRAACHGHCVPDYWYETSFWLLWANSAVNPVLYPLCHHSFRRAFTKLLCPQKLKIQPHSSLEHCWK
Histamine H3 receptor (Rattus norvegicus, UniProt Q9QYN8), sequence (Q9QYN8 whole entry): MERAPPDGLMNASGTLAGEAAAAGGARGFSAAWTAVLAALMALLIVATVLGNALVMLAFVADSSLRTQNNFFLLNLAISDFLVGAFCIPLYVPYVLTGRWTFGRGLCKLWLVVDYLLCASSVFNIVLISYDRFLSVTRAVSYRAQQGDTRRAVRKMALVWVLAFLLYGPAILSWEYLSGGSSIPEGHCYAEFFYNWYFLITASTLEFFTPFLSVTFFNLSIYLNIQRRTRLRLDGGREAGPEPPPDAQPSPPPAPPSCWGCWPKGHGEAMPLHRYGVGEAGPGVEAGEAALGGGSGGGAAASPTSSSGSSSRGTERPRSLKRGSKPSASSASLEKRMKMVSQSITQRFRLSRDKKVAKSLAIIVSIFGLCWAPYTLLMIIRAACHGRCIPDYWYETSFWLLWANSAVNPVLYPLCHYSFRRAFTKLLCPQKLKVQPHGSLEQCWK
Histamine H1 receptor (Homo sapiens), sequence (P35367 whole entry): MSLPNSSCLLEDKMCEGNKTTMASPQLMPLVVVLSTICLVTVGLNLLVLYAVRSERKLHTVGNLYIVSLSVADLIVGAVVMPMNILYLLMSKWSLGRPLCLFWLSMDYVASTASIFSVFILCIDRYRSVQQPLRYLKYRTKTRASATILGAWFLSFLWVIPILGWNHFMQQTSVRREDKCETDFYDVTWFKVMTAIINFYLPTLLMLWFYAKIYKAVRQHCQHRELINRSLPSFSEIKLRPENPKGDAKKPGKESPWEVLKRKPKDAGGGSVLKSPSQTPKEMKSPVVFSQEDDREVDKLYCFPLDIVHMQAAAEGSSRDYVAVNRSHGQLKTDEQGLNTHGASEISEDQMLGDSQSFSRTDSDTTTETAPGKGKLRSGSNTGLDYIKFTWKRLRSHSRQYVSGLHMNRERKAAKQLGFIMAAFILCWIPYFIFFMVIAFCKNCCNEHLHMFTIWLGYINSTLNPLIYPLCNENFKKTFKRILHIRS
Histamine H2 receptor (Homo sapiens), sequence (P25021 whole entry): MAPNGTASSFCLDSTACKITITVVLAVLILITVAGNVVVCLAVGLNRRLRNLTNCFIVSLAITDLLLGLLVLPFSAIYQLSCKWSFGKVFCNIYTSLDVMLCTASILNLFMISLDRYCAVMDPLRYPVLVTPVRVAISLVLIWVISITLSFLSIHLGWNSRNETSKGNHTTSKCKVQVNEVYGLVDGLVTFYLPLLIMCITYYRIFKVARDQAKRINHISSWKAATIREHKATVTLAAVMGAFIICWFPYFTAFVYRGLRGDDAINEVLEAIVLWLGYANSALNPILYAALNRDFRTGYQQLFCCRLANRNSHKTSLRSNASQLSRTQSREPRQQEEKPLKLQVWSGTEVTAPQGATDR
hERG (KCNH2), sequence (Q12809 whole entry): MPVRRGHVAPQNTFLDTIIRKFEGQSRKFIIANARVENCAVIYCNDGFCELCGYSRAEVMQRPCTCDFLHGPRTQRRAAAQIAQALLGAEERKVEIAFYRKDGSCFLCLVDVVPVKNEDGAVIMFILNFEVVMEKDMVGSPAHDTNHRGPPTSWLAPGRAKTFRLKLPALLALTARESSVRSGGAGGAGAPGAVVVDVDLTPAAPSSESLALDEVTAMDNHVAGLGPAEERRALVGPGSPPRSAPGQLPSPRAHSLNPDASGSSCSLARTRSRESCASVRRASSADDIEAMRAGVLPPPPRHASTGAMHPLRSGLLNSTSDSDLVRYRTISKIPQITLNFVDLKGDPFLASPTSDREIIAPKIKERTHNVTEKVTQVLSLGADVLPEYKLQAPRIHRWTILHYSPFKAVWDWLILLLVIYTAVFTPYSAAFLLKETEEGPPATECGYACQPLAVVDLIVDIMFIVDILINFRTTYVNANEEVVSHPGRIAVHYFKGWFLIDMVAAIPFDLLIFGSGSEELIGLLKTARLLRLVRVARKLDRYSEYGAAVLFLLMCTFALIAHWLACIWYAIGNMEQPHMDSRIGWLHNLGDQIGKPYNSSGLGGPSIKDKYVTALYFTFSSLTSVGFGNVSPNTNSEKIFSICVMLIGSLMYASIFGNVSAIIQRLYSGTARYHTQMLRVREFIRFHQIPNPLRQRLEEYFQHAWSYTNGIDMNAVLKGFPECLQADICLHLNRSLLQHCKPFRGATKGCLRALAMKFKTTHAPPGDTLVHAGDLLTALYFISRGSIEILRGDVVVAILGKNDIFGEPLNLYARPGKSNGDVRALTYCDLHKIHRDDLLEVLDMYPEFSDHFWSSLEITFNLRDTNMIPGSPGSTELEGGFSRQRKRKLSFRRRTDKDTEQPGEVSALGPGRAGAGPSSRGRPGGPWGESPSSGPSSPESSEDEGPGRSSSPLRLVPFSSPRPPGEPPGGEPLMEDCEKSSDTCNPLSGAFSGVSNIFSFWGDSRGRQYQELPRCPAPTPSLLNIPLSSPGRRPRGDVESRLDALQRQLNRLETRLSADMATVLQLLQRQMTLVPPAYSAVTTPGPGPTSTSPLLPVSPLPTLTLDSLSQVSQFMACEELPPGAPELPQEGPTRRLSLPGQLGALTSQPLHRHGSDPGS
Cytochrome P450 2C19, sequence (P33261 whole entry): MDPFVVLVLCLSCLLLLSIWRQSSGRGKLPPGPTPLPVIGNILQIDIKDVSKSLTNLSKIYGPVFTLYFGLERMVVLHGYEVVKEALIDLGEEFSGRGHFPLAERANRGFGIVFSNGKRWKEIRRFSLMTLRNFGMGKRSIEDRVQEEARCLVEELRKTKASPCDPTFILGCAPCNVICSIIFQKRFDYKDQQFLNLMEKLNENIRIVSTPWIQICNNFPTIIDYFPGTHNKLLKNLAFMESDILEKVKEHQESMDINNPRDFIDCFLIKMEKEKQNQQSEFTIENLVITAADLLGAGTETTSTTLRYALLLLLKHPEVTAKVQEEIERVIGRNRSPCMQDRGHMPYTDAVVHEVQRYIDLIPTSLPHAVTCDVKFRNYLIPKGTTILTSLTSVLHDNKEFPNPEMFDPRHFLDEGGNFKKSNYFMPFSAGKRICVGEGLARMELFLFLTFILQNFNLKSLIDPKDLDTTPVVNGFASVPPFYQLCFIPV
Cytochrome P450 2C9, sequence (P11712 whole entry): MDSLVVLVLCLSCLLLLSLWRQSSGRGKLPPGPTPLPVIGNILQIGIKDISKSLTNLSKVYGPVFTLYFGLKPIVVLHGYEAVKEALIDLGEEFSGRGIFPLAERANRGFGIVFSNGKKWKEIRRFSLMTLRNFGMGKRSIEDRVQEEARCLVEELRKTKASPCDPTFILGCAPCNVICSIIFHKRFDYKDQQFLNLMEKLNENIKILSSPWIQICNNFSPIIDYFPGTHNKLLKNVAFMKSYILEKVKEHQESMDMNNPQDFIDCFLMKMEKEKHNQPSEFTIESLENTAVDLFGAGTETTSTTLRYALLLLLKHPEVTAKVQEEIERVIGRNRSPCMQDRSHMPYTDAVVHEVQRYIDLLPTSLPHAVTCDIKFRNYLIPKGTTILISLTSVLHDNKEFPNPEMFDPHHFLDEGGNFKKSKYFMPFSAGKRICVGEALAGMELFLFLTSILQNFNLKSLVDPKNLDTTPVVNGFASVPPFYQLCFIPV
Cytochrome P450 2D6, sequence (P10635 whole entry): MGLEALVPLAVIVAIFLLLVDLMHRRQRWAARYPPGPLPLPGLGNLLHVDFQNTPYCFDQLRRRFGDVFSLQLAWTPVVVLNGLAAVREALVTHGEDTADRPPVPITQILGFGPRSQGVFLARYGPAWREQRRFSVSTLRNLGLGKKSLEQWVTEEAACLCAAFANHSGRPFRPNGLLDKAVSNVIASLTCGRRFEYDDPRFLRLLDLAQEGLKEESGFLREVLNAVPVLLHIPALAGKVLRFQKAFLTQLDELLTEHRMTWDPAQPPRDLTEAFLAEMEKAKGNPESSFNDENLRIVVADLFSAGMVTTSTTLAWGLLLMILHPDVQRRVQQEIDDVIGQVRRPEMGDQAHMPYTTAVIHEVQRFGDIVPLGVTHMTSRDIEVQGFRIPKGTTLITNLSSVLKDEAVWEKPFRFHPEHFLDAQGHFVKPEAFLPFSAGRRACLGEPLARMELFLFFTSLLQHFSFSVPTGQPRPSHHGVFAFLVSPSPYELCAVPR

Row | Structure (SMILES) | inhibition [1] | bioavailability [2] | Ratio Ki (Homo sapiens [3]) | inhibition [4] | Cmax [5] | Ki (Histamine H3 receptor [6]) | Ratio Ki (Homo sapiens [7]) | Ratio Ki (Homo sapiens [8]) | Ki (Histamine H3 receptor [9]) | inhibition [10] | half-life [11] | AUC [12] | clearance [13] | Vd [14] | further results
1 | C[C@@H]1CCCN1CCCOc1ccc2c(c1)CCC1CC(=O)NN=C21 (mixture of isomers) | – | 11% | – | – | 27 ng/mL | 15 nM | – | – | 53 nM | – | 42 min | 96 ng·h/mL | 93 mL/min/kg | 6 L/kg | –
2 | O=C1CC2CCc3cc(OC4CCN(C5CCC5)CC4)ccc3C2=NN1 (racemic) | – | 44% | – | – | 75 ng/mL | 17 nM | – | – | 26 nM | – | – | 468 ng·h/mL | – | – | Kp [15]: 5.2; concentration at 6 h [16]: 780 nM; t1/2 (Rattus norvegicus [17]): 54 min; Vd (Rattus norvegicus [18]): 6.6 L/kg
3 | C[C@@H]1CCCN1CCCOc1ccc2c(c1)CCc1cc(=O)n(-c3ccccc3)nc1-2 | – | – | – | – | – | 16 nM | – | – | 23 nM | – | – | – | – | – | –
4 | O=c1cc2c(nn1Cc1ccccc1)-c1ccc(OCCCN3CCCCC3)cc1CC2 | – | – | – | – | – | 105 nM | – | – | 140 nM | – | – | – | – | – | –

Stronger by Ki (Histamine H3 receptor [6]), values ahead:

Row | inhibition [1] | bioavailability [2] | Ratio Ki (Homo sapiens [3]) | inhibition [4] | Cmax [5] | Ki (Histamine H3 receptor [6]) | Ratio Ki (Homo sapiens [7]) | Ratio Ki (Homo sapiens [8]) | Ki (Histamine H3 receptor [9]) | inhibition [10] | half-life [11] | AUC [12] | clearance [13] | Vd [14] | Structure (SMILES) | further results
5 | < 45% | – | – | < 45% | – | 6.2 nM | – | – | 19 nM | < 45% | – | – | – | – | C[C@@H]1CCCN1CCCOc1ccc2c(c1)CCc1n[nH]c(=O)cc1-2 | –
6 | < 40% | 2% | > 1000 | < 40% | 34 ng/mL | 4.3 nM | > 1000 | > 1000 | 14 nM | < 40% | 84 min | 191 ng·h/mL | 11 mL/min/kg | 1.2 L/kg | C[C@@H]1CCCN1CCCOc1ccc2c(c1)CCc1cc(=O)[nH]nc1-2 | –
7 | < 40% | – | > 1000 | < 40% | – | 4.2 nM | > 1000 | > 1000 | 17 nM | < 40% | – | – | – | – | CC(C)n1nc2c(cc1=O)CCc1cc(OCCCN3CCC[C@H]3C)ccc1-2 | –
8 | < 40% | 3% | > 1000 | < 40% | 24 ng/mL | 3.6 nM | > 1000 | > 1000 | 8.3 nM | < 40% | 24 min | 80 ng·h/mL | 36 mL/min/kg | 1.3 L/kg | C[C@@H]1CCCN1CCCOc1ccc2c(c1)CCc1cc(=O)n(C)nc1-2 | IC50 (Cytochrome P450 2C9): > 30000 nM; IC50 (Cytochrome P450 2C19): > 30000 nM; IC50 (Cytochrome P450 2D6): > 30000 nM; inhibition at 10 µM (hERG (KCNH2)): 34%; EC50 (Histamine H3 receptor [19]): 1.7 nM; IC50 (Cytochrome P450 1A2): > 30000 nM; IC50 (Cytochrome P450 3A4): > 30000 nM
